The experiment deals with TFEB. Put plainly: TFEB nuclear translocation in TFEB-GFP HeLa cells. The experiment is classed as cell-based. The following applies: 4 hrs. The method, then:
FIG. 3A is the graph showing the percentage of nuclear translocated TFEB for which TFEB-GFP HeLa cells were treated with MSL compound for 4 hrs and then nuclei of the cells were stained with DAPI. FIG. 3B is the results of the experiments in which HeLa cells were incubated in the presence of MSL compound or vehicle control for 24 hrs and then the acidic vesicular organelles formed were stained with acridine orange. FIG. 3C is the results of the experiments in which TFEB-GFP HeLa cells were treated with MSL compound or vehicle control for 4 hrs and then the cells were immunoblotted with the antibodies indicated. FIG. 3D and FIG. 3E is the result of measuring the calcineurin activity in the lysates of Hepa1c1c7 cells treated with the compounds indicated. Error bars, S.D. **, P<0.01;***, P<0.001.
FIG. 10 is the result of the experiments using compound of formula 2 (hereinafter referred to as MSL-7) of the present disclosure as an autophagic enhancer. FIG. 10A is the result of immuneblot using the antibodies indicated using Hela cells treated with MSL or MSL-7. FIG. 10B is the result of measuring the viability of Hela cells treated with vehicle control or various concentration of MSL-7 (50-100 μM) for 48 hrs. FIG. 10C is the result of DAPI stained nuclei of TFEB-GFP HeLa cells which were treated with vehicle control or MSL-7 for 4 hrs. The graph indicates the percentage of TFEB translocated into the nuclei. Error bars, S.D. *, P<0.05; **, P<0.01; ***, P<0.001.
Screening of autophagy enhancer. […] Luciferase assay. […] Firefly luciferase was determined after mixing 5 μl of lysate with 25 μl of Luciferase Assay Reagent II. Renilla luciferase was then determined after further addition of 20 ul of Stop&Glo Reagent. […] Cytotoxicity was determined by the measurement of LDH release in cell culture media using the LDH kit (Roche), according to the protocol from the manufacturer. […] Imaging and image quantification. […] Formation of acidic vesicular organelles was quantitated by staining the cells with acridine orange (Invitrogen, 5 ug/ml, 10 min). […]

SMILES strings stand for the structures. Entries after “also recorded” stand apart in the source; their conditions may differ.

As for `COc1oc(-c2ccccc2Cl)nc1S(=O)(=O)c1ccccc1` [MSL-7, 2-(2-chlorophenyl)-5-methoxy-4-(phenylsulfonyl) oxazole], the TFEB nuclear translocation entry is recorded as “induced nuclear translocation of TFEB; also recorded: in a dose-dependent manner”.

On to `CSc1oc(-c2ccccc2)nc1S(=O)(=O)c1ccc(F)cc1` [MSL], for which the TFEB nuclear translocation entry is “translocated to the nuclei in the majority of MSL-treated HeLa cells”. Besides, the “percentage of nuclei showing TFEB positivity” value (compared to untreated cells) is on record as “greatly increased”.

Values taken from patent US10881642B2, “Autophagy enhancer and use thereof” (Industry-Academic Cooperation Foundation, Yonsei University, priority 2016, dated 2021).
